Experiments:
[1] = Partition ratio between Kcat (for beta lactamase) and Kinact (for beta lactamase) was determined
[2] = tested on: Beta-lactamase TEM (Escherichia coli); assay: Effect on rate of recovery of TEM-2 beta lactamase from transient inhibition
[3] = target: Beta-lactamase (Enterobacter cloacae) (UniProt P05364)
Description: Ks for inactivation of TEM-1 beta-lactamase

[4] = target: Beta-lactamase (Enterobacter cloacae) (UniProt P05364); remark: listed apart in the source
Description: K3 for inactivation of TEM-1 beta-lactamase

[5] = target: Beta-lactamase (Enterobacter cloacae) (UniProt P05364); remark: listed apart in the source
Description: Kcat for inactivation of TEM-1 beta-lactamase

[6] = Partition ratio between Kcat and Kinact was determined
[7] = target: Beta-lactamase (Enterobacter cloacae) (UniProt P05364); remark: listed apart in the source
Description: K2 for inactivation of TEM-1 beta-lactamase

Beta-lactamase (Enterobacter cloacae), sequence (P05364 21-381 limits assumed): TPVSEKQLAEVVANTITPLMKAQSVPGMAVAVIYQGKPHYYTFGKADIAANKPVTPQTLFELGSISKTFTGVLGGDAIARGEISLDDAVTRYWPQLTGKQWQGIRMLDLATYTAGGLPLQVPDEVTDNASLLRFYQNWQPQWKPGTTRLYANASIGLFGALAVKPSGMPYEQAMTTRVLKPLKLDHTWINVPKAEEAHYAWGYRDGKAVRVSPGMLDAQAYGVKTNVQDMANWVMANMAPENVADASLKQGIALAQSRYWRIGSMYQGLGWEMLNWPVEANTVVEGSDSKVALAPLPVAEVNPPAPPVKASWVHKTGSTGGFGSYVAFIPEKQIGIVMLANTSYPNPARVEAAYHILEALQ

Q: For `C/C=C1\O[C@@H]2CC(=O)N2[C@H]1C(=O)O`, which Ratio [1] is on record?
A: The Ratio was 390.

Q: With `O=C1C[C@H]2O/C(=C\CO)[C@H](CO)N12` as the compound, how does the Rate of recovery [2] read?
A: The Rate of recovery was 0.002 s⁻¹.

Q: With `O=C(O)[C@H]1C(CCO)O[C@@H]2CC(=O)N21` (some centres not stated) as the compound, how does the Ks [3] read?
A: The Ks was 11.6 µM.

Q: And the K3 [4]?
A: The K3 was 10 s⁻¹.

Q: What about the k cat [5] of the same compound?
A: The k cat was 8 s⁻¹.

Q: What about the Ratio [6] of the same compound?
A: Its Ratio is 3.7e+06.

Q: And the K2 [7]?
A: Its K2 is 42 s⁻¹.
